From PubChem BioAssay (NCI)
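Method: 48-hour compound exposure of cells in 96-well plates, five concentrations, linear interpolation of endpoints. GI50 = concentration required for 50% inhibition of growth. At the TGI there is no net growth.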

Tests used:
Experiment in all cases: NCI tumour cell line growth inhibition, 48 h
786-0 renal = system: 786-0 renal
A498 renal = system: A498 renal
A549 NSCLC = system: A549 NSCLC
ACHN renal = system: ACHN renal
BT-549 breast = system: BT-549 breast
CAKI-1 renal = system: CAKI-1 renal
CCRF-CEM leukemia = system: CCRF-CEM leukemia
COLO 205 colon = system: COLO 205 colon
DU-145 prostate = system: DU-145 prostate
EKVX NSCLC = system: EKVX NSCLC
HCC-2998 colon = system: HCC-2998 colon
HCT-116 colon = system: HCT-116 colon
HCT-15 colon = system: HCT-15 colon
HL-60(TB) leukemia = system: HL-60(TB) leukemia
HOP-62 NSCLC = system: HOP-62 NSCLC
HOP-92 NSCLC = system: HOP-92 NSCLC
HS 578T breast = system: HS 578T breast
HT29 colon = system: HT29 colon
IGROV1 ovarian = system: IGROV1 ovarian
K-562 leukemia = system: K-562 leukemia
KM12 colon = system: KM12 colon
LOX IMVI melanoma = system: LOX IMVI melanoma
M14 melanoma = system: M14 melanoma
MALME-3M melanoma = system: MALME-3M melanoma
MCF7 breast = system: MCF7 breast
MDA-MB-231 breast = system: MDA-MB-231 breast
MDA-MB-435 = system: MDA-MB-435
MDA-MB-468 breast = system: MDA-MB-468 breast
MOLT-4 leukemia = system: MOLT-4 leukemia
NCI-H226 lung = system: NCI-H226 lung
NCI-H23 lung = system: NCI-H23 lung
NCI-H460 lung = system: NCI-H460 lung
NCI-H522 lung = system: NCI-H522 lung
NCI/ADR-RES ovarian = system: NCI/ADR-RES ovarian
OVCAR-3 ovarian = system: OVCAR-3 ovarian
OVCAR-4 ovarian = system: OVCAR-4 ovarian
OVCAR-5 ovarian = system: OVCAR-5 ovarian
OVCAR-8 ovarian = system: OVCAR-8 ovarian
PC-3 prostate = system: PC-3 prostate
RPMI-8226 leukemia = system: RPMI-8226 leukemia
SF-268 CNS = system: SF-268 CNS
SF-295 CNS = system: SF-295 CNS
SF-539 CNS = system: SF-539 CNS
SK-MEL-2 melanoma = system: SK-MEL-2 melanoma
SK-MEL-28 melanoma = system: SK-MEL-28 melanoma
SK-MEL-5 melanoma = system: SK-MEL-5 melanoma
SK-OV-3 ovarian = system: SK-OV-3 ovarian
SN12C renal = system: SN12C renal
SNB-19 CNS = system: SNB-19 CNS
SNB-75 CNS = system: SNB-75 CNS
SR leukemia = system: SR leukemia
SW-620 colon = system: SW-620 colon
T-47D breast = system: T-47D breast
TK-10 renal = system: TK-10 renal
U251 CNS = system: U251 CNS
UACC-257 melanoma = system: UACC-257 melanoma
UACC-62 melanoma = system: UACC-62 melanoma
UO-31 renal = system: UO-31 renal

With `COCCOCCOCCOc1ccc(-n2cc(CCCN(CCNc3ccnc4cc(Cl)ccc34)C(=O)CCC(=O)O[C@@H]3O[C@@H]4OC5(C)CC[C@H]6[C@H](C)CC[C@@H]([C@H]3C)[C@@]46OO5)nn2)cc1` the GI50 (786-0 renal) was 5.54 µM, the TGI (786-0 renal) was greater than 10.3 µM and the GI50 (A498 renal) was greater than 10.3 µM. For the same compound, the TGI (A498 renal) was greater than 10.3 µM, the GI50 (A549 NSCLC) was 6.09 µM and the TGI (A549 NSCLC) was greater than 10.3 µM. The GI50 (ACHN renal) was 3.97 µM, the TGI (ACHN renal) was greater than 10.3 µM and the GI50 (BT-549 breast) was 771 nM. It also gave a TGI (BT-549 breast) of 6.85 µM, a GI50 (CAKI-1 renal) greater than 10.3 µM and a TGI (CAKI-1 renal) greater than 10.3 µM. For the same compound, the GI50 (CCRF-CEM leukemia) was 1070 nM, the TGI (CCRF-CEM leukemia) was greater than 10.3 µM and the GI50 (COLO 205 colon) was 1120 nM. It also gave a TGI (COLO 205 colon) greater than 10.3 µM, a GI50 (DU-145 prostate) greater than 10.3 µM and a TGI (DU-145 prostate) greater than 10.3 µM. The GI50 (EKVX NSCLC) was 1670 nM, the TGI (EKVX NSCLC) was greater than 10.3 µM and the GI50 (HCC-2998 colon) was 7.16 µM. The TGI (HCC-2998 colon) was greater than 10.3 µM, the GI50 (HCT-116 colon) was 434 nM and the TGI (HCT-116 colon) was greater than 10.3 µM. It also gave a GI50 (HCT-15 colon) of 388 nM, a TGI (HCT-15 colon) greater than 10.3 µM and a GI50 (HL-60(TB) leukemia) of 353 nM. It also gave a TGI (HL-60(TB) leukemia) of 2370 nM, a GI50 (HOP-62 NSCLC) greater than 10.3 µM and a TGI (HOP-62 NSCLC) greater than 10.3 µM. The GI50 (HOP-92 NSCLC) was 1090 nM, the TGI (HOP-92 NSCLC) was 8.11 µM and the GI50 (HS 578T breast) was 2540 nM. It also gave a TGI (HS 578T breast) greater than 10.3 µM, a GI50 (HT29 colon) of 1230 nM and a TGI (HT29 colon) greater than 10.3 µM. For the same compound, the GI50 (IGROV1 ovarian) was 4.54 µM, the TGI (IGROV1 ovarian) was greater than 10.3 µM and the GI50 (K-562 leukemia) was 434 nM. For the same compound, the TGI (K-562 leukemia) was greater than 10.3 µM, the GI50 (KM12 colon) was 792 nM and the TGI (KM12 colon) was greater than 10.3 µM. For the same compound, the GI50 (LOX IMVI melanoma) was 731 nM, the TGI (LOX IMVI melanoma) was greater than 10.3 µM and the GI50 (M14 melanoma) was 3.19 µM. For the same compound, the TGI (M14 melanoma) was greater than 10.3 µM, the GI50 (MALME-3M melanoma) was 1730 nM and the TGI (MALME-3M melanoma) was 4.2 µM. The GI50 (MCF7 breast) was 1040 nM, the TGI (MCF7 breast) was greater than 10.3 µM and the GI50 (MDA-MB-231 breast) was greater than 10.3 µM. For the same compound, the TGI (MDA-MB-231 breast) was greater than 10.3 µM, the GI50 (MDA-MB-435) was 1250 nM and the TGI (MDA-MB-435) was greater than 10.3 µM. The GI50 (MDA-MB-468 breast) was 1010 nM, the TGI (MDA-MB-468 breast) was greater than 10.3 µM and the GI50 (MOLT-4 leukemia) was 408 nM. The TGI (MOLT-4 leukemia) was greater than 10.3 µM, the GI50 (NCI-H226 lung) was 3.18 µM and the TGI (NCI-H226 lung) was greater than 10.3 µM. The GI50 (NCI-H23 lung) was 1770 nM, the TGI (NCI-H23 lung) was greater than 10.3 µM and the GI50 (NCI-H460 lung) was 10.1 µM. For the same compound, the TGI (NCI-H460 lung) was greater than 10.3 µM, the GI50 (NCI-H522 lung) was 754 nM and the TGI (NCI-H522 lung) was greater than 10.3 µM. It also gave a GI50 (NCI/ADR-RES ovarian) of 2450 nM, a TGI (NCI/ADR-RES ovarian) greater than 10.3 µM and a GI50 (OVCAR-3 ovarian) of 883 nM. For the same compound, the TGI (OVCAR-3 ovarian) was greater than 10.3 µM, the GI50 (OVCAR-4 ovarian) was 2000 nM and the TGI (OVCAR-4 ovarian) was greater than 10.3 µM. It also gave a GI50 (OVCAR-5 ovarian) of 1700 nM, a TGI (OVCAR-5 ovarian) greater than 10.3 µM and a GI50 (OVCAR-8 ovarian) of 1830 nM. It also gave a TGI (OVCAR-8 ovarian) greater than 10.3 µM, a GI50 (PC-3 prostate) of 301 nM and a TGI (PC-3 prostate) greater than 10.3 µM. For the same compound, the GI50 (RPMI-8226 leukemia) was 386 nM, the TGI (RPMI-8226 leukemia) was greater than 10.3 µM and the GI50 (SF-268 CNS) was 7.69 µM. For the same compound, the TGI (SF-268 CNS) was greater than 10.3 µM, the GI50 (SF-295 CNS) was 3.63 µM and the TGI (SF-295 CNS) was greater than 10.3 µM. The GI50 (SF-539 CNS) was 4.97 µM, the TGI (SF-539 CNS) was greater than 10.3 µM and the GI50 (SK-MEL-2 melanoma) was 5.76 µM. For the same compound, the TGI (SK-MEL-2 melanoma) was greater than 10.3 µM, the GI50 (SK-MEL-28 melanoma) was 4.01 µM and the TGI (SK-MEL-28 melanoma) was greater than 10.3 µM. The GI50 (SK-MEL-5 melanoma) was 1180 nM, the TGI (SK-MEL-5 melanoma) was 8.81 µM and the GI50 (SK-OV-3 ovarian) was greater than 10.3 µM. It also gave a TGI (SK-OV-3 ovarian) greater than 10.3 µM, a GI50 (SN12C renal) of 4.77 µM and a TGI (SN12C renal) greater than 10.3 µM. It also gave a GI50 (SNB-19 CNS) greater than 10.3 µM, a TGI (SNB-19 CNS) greater than 10.3 µM and a GI50 (SNB-75 CNS) greater than 10.3 µM. For the same compound, the TGI (SNB-75 CNS) was greater than 10.3 µM, the GI50 (SR leukemia) was 375 nM and the TGI (SR leukemia) was 3.34 µM. The GI50 (SW-620 colon) was 654 nM, the TGI (SW-620 colon) was greater than 10.3 µM and the GI50 (T-47D breast) was 420 nM. For the same compound, the TGI (T-47D breast) was greater than 10.3 µM, the GI50 (TK-10 renal) was greater than 10.3 µM and the TGI (TK-10 renal) was greater than 10.3 µM. The GI50 (U251 CNS) was 4.31 µM, the TGI (U251 CNS) was greater than 10.3 µM and the GI50 (UACC-257 melanoma) was 1860 nM. For the same compound, the TGI (UACC-257 melanoma) was greater than 10.3 µM, the GI50 (UACC-62 melanoma) was 1180 nM and the TGI (UACC-62 melanoma) was greater than 10.3 µM. It also gave a GI50 (UO-31 renal) of 1370 nM and a TGI (UO-31 renal) greater than 10.3 µM.
